Source: patent publication US4613695A, “N-nitroso compounds and compositions containing such compounds” (Aktiebolaget Leo, priority 1982, dated 1986)
Read-outs that look alike come from different tables or passages of the source.

Experiments:
in vivo = conditions: rat, po
Text: (§1) A therapeutic index is an indication of the therapeutic usefulness of a compound, and such an index may be defined in various ways. One type of therapeutic index commonly used is the ratio LD50/ED50, wherein LD50 is the dose that causes a 50 percent lethality, and ED50 is the dose that causes a 50 percent reduction of tumour size. Another type of therapeutic index, useful in evaluation of increasing survival time, is the ratio between maximum and minimum effective dose. Both these types of therapeutic indexes are used and given in the experimental results below.
(§2) The manner of administration of the compounds is by the oral (p. o.) route in each case.
(§3) Experimental animals: Female Sprague Dawley rats
(§4) Tumour implants: Tumour pieces with 2-3 mm diameter, implanted subcutaneously
(§5) Therapy: The compound is administered p. o. once on the day after the implantation
(§6) Evaluation: Weight of tumour is determined in test animals and compared with those of control animals. For each compound the LD50 and ED50 dose (as defined above) are determined. The therapeutic index, T. I., (LD50/ED50) is calculated.

Lymphatic leukemia L1210 = Lymphatic leukemia L1210 survival test (survival time increase, long term survival, cure potential); type: in vivo, Female BDF1 mice; conditions: for minimal effective dose: Mus musculus, L1210, po; for minimal effective dose / Maximum effective dose (survival time increase) / Dose or dose range for cure: p.o. once; for T.I.s (long term survival; max.effect.dose/min.effect.dose): long term survival T·100/To >20%; for T.I.s = max.effect.dose/min.effect.dose: survival time increase, t·100/c ≥125%; for Dose or dose range for cure: ≥90% long term survivors on day 60
Description: The experimental design and interpretation of the results are in accordance with the standards set by the CCNSC (see reference (16)) and by the DR&D (see reference (17)).
Experimental animals: Female BDF1 mice
Tumour implants: 10^5 tumour cells implanted intraperitoneally (i. p.)
Therapy: The compounds were administered p. o. once on the day following the implantation.
Termination: The animals were killed on the 60th day after the implantation. Living animals on the 60th day are termed long term survivors.
(a) Evaluation of therapeutic dose range for survival time increase: Survival times at various dose levels are determined, and the survival time of the test animals (t) is expressed as the percentage of that of the control animals (c):
The maximum effective dose and the minimum effective dose required to achieve t·100/c≥125% are determined, and a therapeutic index as defined below is calculated:
T. I.s =max.effect.dose/min.effect.dose.
(b) Evaluation of therapeutic dose range for long term survival: Long time survival is determined at various dose levels and is expressed as surviving test animals on day 60 (T) as the percentage of that of the total number of test animals (To):
The maximum effective dose and the minimum effective dose to achieve long term survival T·100/To >20% are determined and a therapeutic index, T. I.1 s is calculated:
T. I.1s =max.effect.dose/min.effect.dose.
(c) Evaluation of cure potential: The normal survival time for test animals receiving no therapeutic treatment is 9-11 days. Surviving test animals on the 60th day after implantation showing no sign of tumour presence are regarded as cured animals. Long term survival is determined as under (b) above, and the effective dose or dose range to achieve a long term survival T·100/To ≥90% is determined as an evaluation of the cure potential.

[1] = test system: Walker carcinosarcoma 256; experiment: Walker carcinosarcoma 256 tumour growth inhibition (single p.o. dose); type: in vivo, Female Sprague Dawley rats; conditions: for ED50: Rattus norvegicus, dose that causes a 50 percent reduction of tumour size, p.o. once, read-out: ED50
Text: as §1, §2, §3, §4, §5
Termination: The animals are killed on the 9th day after implantation
as §6

[2] = cited from earlier work
[3] = 1440 h, >20% long term survivors on day 60, read-out: Minimum effective dose (long term survival)
[4] = median survival time percent of control ≥ 125%, read-out: Minimum effective dose (survival time increase)
[5] = median survival time percent of control ≥ 125%
[6] = therapeutic index LD50/ED50, p.o.

Structure (SMILES)	LD50 (in vivo)	minimal effective dose (Lymphatic leukemia L1210; [3])	minimal effective dose (Lymphatic leukemia L1210; [4])	T.I.s (long term survival; max.effect.dose/min.effect.dose) (Lymphatic leukemia L1210)	Maximum effective dose (survival time increase) (Lymphatic leukemia L1210; [5])	T.I.s = max.effect.dose/min.effect.dose (Lymphatic leukemia L1210)	ED50 ([1]; po)	T.I. LD50/ED50 [1, 6]	Dose or dose range for cure (Lymphatic leukemia L1210)	T.I. LD50/ED50 ([1]; rat, in vivo, po)	other types of toxicities ([2]; references (6, 7))	bone marrow toxicity ([2]; under clinical evaluation, reference (5))
CCN(CC)S(=O)(=O)CCNC(=O)N(CCCl)N=O [1:2, 1-(2-chloroethyl)-3-(2-/diethylaminosulfonyl/ethyl)-1-nitrosourea]	60 mg/kg	63 mg/kg	16 mg/kg	2	125 mg/kg	8	0.4 mg/kg	150				
NS(=O)(=O)CCNC(=O)N(CCCl)N=O [1:3, 3-(2-/aminosulfonyl/ethyl)-1-(2-chloroethyl)-1-nitrosourea]	40 mg/kg	16 mg/kg		2			0.2 mg/kg	200				
O=NN(CCCl)C(=O)NCCS(=O)(=O)N1CCCCC1 [1:4, 1-(2-chloroethyl)-1-nitroso-3-(2-/1-piperidinosulfonyl/ethyl)-urea]	125 mg/kg	31 mg/kg	8 mg/kg	4	125 mg/kg	16	1 mg/kg	125	125 mg/kg			
CNS(=O)(=O)CCNC(=O)N(CCCl)N=O [1:5, 1-(2-chloroethyl)-3-(2-/methylaminosulfonyl/ethyl)-1-nitrosourea]	40 mg/kg		8 mg/kg		63 mg/kg	8	0.25 mg/kg	160	31 mg/kg			
CCCN(CCC)S(=O)(=O)CCNC(=O)N(CCCl)N=O [1:6, 1-(2-chloroethyl)-3-(2-/dipropylaminosulfonyl/ethyl)-1-nitrosourea]	250 mg/kg		31 mg/kg		250 mg/kg	8	2 mg/kg	125	125 mg/kg			
O=NN(CCCl)C(=O)NCCS(=O)(=O)NCc1ccccc1 [1:7, 3-(2-/benzylaminosulfonyl/ethyl)-1-(2-chloroethyl)-1-nitrosourea]	250 mg/kg	125 mg/kg		2			2 mg/kg	125				
O=NN(CCCl)C(=O)NCCS(=O)(=O)NCCO [1:14, 1-(2-chloroethyl)-3-(2-/2-hydroxyethylaminosulfonyl/ethyl)-1-nitrosourea]	90 mg/kg	31 mg/kg	16 mg/kg	4	125 mg/kg	8	0.6 mg/kg	150	63 mg/kg			
CN(CCO)S(=O)(=O)CCNC(=O)N(CCCl)N=O [1:15, 1-(2-chloroethyl)-3-(2-/N-2-hydroxyethyl-N-methyl-aminosulfonyl/ethyl)-1-nitrosourea]	90 mg/kg	31 mg/kg	16 mg/kg	4	125 mg/kg	8	0.6 mg/kg		63 mg/kg	150		
CN(C)S(=O)(=O)CCCCCNC(=O)N(CCCl)N=O [1:19, 1-(2-chloroethyl)-3-(5-/dimethylaminosulfonyl/pentyl)-1-nitrosourea]	250 mg/kg	63 mg/kg		2			1 mg/kg	250	125 mg/kg			
CN(C)S(=O)(=O)CCCCNC(=O)N(CCCl)N=O [1:24, 1-(2-chloroethyl)-3-(4-/dimethylaminosulfonyl/butyl)-1-nitrosourea]	250 mg/kg	63 mg/kg	31 mg/kg	4	250 mg/kg	8	2 mg/kg		125 mg/kg	125		
CN(C1CCCCC1)S(=O)(=O)CCNC(=O)N(CCCl)N=O [1:28, 1-(2-chloroethyl)-3-(2-/N-cyclohexyl-N-methylaminosulfonyl/ethyl)-1-nitrosourea]	> 250 mg/kg	125 mg/kg	31 mg/kg	2	250 mg/kg	8	2.5 mg/kg	> 100	125 mg/kg			
O=NN(CCCl)C(=O)NCCCl [BCNU, 1,2-bis-(2-chloroethyl)-nitrosourea, reference compound]	50 mg/kg	63 mg/kg	16 mg/kg	1	63 mg/kg	4	1 mg/kg	50	none			
O=NN(CCCl)C(=O)N[C@H]1C(O)O[C@H](CO)[C@@H](O)[C@@H]1O (stereo partly drawn) [Chlorozotocin, 2-/3-(2-chloroethyl)-3-nitrosoureido/-D-glucopyranose]											still evident, e.g. liver and lung toxicity	decreased bone marrow toxicity
